Measured values from publication PMC11864979, “First-in-class ultralong-target-residence-time p38α inhibitors as a mitosis-targeted therapy for colorectal cancer” (Nature Cancer, 2025).
Where two headings read alike, the source gives them in different places.

Experiments:
Assay in all cases: selectivity profiling in a panel of 340 wild-type kinases (Reaction Biology Europe)
Format in all cases: binding
340 wild-type kinases [1] = molecular target: T1, 340 wild-type kinases (Homo sapiens, UniProt O15111)
T1 construct: purchased Reaction Biology Europe
T1 sequence (O15111 1-745): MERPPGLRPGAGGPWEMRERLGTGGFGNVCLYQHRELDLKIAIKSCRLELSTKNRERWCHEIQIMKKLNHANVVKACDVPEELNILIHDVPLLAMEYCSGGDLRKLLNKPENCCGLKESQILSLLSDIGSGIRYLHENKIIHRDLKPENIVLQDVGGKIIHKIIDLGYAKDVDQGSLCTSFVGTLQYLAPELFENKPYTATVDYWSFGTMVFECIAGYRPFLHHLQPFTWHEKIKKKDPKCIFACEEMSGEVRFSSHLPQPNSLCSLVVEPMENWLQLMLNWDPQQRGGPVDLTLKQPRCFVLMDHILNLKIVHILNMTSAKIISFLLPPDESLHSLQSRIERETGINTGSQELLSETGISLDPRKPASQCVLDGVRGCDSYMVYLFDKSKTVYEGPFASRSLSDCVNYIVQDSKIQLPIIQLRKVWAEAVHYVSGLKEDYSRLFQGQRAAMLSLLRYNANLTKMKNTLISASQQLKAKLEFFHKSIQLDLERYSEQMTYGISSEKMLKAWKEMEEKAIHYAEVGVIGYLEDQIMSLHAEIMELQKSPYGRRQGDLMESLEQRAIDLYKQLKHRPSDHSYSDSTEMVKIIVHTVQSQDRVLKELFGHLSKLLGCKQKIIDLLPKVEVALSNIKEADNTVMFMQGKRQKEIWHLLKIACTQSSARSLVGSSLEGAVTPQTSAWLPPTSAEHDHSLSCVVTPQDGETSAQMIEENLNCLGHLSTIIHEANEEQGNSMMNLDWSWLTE

340 wild-type kinases [2] = molecular target: T2, 340 wild-type kinases (Homo sapiens, UniProt P36507)
T2 construct: purchased Reaction Biology Europe

340 wild-type kinases [3] = molecular target: T3, 340 wild-type kinases (Homo sapiens, UniProt Q9H2X6)
T3 construct: purchased Reaction Biology Europe

340 wild-type kinases [4] = molecular target: T4, 340 wild-type kinases (Homo sapiens, UniProt O00141)
T4 construct: purchased Reaction Biology Europe
T4 sequence (O00141 1-431): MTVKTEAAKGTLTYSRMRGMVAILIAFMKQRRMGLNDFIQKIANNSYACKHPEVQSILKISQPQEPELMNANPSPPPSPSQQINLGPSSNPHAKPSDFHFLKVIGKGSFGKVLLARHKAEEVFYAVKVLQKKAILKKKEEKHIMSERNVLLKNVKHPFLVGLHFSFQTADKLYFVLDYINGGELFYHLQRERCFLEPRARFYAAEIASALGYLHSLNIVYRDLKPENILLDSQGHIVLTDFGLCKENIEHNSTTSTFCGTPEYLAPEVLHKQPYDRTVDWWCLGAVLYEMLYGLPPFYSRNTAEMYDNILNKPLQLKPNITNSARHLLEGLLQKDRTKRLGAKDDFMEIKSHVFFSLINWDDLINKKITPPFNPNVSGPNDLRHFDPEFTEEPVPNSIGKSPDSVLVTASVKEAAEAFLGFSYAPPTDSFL

340 wild-type kinases [5] = molecular target: T5, 340 wild-type kinases (Homo sapiens, UniProt Q9H422)
T5 construct: purchased Reaction Biology Europe

340 wild-type kinases [6] = molecular target: T6, 340 wild-type kinases (Homo sapiens, UniProt Q86Y07)
T6 construct: purchased Reaction Biology Europe

340 wild-type kinases [7] = molecular target: T7, 340 wild-type kinases (Homo sapiens, UniProt Q9H3Y6)
T7 construct: purchased Reaction Biology Europe

340 wild-type kinases [8] = molecular target: T8, 340 wild-type kinases (Homo sapiens, UniProt P28482)
T8 construct: purchased Reaction Biology Europe

340 wild-type kinases [9] = molecular target: T9, 340 wild-type kinases (Homo sapiens, UniProt Q9HCP0)
T9 construct: purchased Reaction Biology Europe
T9 sequence (Q9HCP0 whole entry): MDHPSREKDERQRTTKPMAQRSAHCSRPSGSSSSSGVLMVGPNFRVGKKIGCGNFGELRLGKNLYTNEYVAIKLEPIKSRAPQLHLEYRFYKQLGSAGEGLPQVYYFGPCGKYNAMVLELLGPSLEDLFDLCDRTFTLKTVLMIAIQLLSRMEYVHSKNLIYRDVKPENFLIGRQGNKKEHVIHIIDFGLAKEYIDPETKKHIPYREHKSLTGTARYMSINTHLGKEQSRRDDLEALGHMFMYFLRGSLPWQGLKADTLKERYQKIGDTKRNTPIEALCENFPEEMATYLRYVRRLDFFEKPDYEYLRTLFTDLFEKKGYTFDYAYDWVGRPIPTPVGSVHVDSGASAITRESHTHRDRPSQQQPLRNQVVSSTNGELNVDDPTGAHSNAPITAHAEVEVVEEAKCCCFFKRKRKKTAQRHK

T7 sequence (Q9H3Y6 whole entry): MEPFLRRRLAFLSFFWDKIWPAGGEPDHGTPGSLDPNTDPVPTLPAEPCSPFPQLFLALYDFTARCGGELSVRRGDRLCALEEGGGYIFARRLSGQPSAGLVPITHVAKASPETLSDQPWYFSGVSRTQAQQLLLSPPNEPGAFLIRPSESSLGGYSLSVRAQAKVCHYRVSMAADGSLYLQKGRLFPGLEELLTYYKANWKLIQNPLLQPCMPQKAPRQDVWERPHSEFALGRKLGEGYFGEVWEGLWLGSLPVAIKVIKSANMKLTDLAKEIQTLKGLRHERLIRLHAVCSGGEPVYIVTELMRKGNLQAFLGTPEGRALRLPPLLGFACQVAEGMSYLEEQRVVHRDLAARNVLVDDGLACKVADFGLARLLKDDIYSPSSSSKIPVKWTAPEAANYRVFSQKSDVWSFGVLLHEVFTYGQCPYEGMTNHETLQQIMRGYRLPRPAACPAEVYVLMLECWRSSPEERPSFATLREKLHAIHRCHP
T2 sequence (P36507 whole entry): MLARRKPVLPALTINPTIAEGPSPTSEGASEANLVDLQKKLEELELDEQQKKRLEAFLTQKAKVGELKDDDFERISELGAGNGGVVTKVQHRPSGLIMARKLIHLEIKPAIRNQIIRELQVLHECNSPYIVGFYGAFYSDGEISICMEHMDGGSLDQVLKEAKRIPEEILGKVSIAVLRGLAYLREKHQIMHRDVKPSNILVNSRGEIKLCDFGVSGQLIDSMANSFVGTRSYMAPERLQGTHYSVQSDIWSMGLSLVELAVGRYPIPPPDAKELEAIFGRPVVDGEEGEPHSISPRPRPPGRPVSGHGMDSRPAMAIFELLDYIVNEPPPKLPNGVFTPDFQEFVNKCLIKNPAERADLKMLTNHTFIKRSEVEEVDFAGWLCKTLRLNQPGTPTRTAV
T6 sequence (Q86Y07 whole entry): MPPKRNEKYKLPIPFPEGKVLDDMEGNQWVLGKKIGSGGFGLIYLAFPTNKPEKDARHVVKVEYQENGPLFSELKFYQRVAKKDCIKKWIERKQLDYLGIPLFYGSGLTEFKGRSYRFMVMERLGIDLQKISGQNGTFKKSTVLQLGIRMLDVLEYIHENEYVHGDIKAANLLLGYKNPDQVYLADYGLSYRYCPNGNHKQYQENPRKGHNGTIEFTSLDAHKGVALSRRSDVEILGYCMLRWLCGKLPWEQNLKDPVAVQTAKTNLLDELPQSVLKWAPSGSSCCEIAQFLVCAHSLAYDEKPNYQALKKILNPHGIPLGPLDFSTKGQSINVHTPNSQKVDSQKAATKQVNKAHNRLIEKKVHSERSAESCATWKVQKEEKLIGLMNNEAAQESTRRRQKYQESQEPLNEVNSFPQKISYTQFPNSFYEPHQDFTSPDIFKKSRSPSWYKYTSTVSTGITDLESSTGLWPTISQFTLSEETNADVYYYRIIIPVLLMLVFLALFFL
T8 sequence (P28482 whole entry): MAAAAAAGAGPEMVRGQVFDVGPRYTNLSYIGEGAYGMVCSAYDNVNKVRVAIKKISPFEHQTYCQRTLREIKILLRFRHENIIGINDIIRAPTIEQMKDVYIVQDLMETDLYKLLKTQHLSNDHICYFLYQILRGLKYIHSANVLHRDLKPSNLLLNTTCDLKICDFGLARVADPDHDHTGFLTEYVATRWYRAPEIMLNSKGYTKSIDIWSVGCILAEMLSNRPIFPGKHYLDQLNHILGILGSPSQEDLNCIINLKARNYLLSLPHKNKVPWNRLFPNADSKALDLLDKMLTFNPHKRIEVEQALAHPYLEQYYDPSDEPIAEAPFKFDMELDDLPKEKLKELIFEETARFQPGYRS
T3 sequence (Q9H2X6 whole entry): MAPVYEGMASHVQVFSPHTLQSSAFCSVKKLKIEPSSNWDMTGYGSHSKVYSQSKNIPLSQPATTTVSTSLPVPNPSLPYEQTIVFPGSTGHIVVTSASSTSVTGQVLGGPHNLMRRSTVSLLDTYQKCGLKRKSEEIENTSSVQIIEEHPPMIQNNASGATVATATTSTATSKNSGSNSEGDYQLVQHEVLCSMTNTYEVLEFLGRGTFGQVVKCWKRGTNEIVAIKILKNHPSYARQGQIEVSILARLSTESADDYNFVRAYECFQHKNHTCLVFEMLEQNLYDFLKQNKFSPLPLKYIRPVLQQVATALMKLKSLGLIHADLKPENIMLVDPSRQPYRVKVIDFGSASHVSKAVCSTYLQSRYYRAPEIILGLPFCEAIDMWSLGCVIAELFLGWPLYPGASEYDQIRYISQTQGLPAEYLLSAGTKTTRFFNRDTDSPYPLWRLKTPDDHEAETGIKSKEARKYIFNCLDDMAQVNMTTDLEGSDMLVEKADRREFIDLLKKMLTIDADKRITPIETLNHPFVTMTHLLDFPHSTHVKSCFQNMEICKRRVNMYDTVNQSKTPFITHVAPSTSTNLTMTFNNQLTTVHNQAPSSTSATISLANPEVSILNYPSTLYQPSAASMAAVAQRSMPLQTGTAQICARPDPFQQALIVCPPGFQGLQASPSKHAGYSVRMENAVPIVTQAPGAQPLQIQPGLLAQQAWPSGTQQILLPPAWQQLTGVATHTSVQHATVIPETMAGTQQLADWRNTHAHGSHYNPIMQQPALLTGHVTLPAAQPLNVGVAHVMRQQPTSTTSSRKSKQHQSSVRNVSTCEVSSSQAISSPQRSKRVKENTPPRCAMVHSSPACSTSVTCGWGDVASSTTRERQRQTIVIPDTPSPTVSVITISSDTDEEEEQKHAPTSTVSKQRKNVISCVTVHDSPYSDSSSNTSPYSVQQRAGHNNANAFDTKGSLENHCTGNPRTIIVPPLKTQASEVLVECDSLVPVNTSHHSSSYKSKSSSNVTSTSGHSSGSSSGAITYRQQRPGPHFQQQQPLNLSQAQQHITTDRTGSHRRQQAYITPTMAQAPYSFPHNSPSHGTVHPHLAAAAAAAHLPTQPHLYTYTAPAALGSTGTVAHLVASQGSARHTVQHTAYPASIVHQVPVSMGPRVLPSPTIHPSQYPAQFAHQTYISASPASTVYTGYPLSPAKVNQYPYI
T5 sequence (Q9H422 whole entry): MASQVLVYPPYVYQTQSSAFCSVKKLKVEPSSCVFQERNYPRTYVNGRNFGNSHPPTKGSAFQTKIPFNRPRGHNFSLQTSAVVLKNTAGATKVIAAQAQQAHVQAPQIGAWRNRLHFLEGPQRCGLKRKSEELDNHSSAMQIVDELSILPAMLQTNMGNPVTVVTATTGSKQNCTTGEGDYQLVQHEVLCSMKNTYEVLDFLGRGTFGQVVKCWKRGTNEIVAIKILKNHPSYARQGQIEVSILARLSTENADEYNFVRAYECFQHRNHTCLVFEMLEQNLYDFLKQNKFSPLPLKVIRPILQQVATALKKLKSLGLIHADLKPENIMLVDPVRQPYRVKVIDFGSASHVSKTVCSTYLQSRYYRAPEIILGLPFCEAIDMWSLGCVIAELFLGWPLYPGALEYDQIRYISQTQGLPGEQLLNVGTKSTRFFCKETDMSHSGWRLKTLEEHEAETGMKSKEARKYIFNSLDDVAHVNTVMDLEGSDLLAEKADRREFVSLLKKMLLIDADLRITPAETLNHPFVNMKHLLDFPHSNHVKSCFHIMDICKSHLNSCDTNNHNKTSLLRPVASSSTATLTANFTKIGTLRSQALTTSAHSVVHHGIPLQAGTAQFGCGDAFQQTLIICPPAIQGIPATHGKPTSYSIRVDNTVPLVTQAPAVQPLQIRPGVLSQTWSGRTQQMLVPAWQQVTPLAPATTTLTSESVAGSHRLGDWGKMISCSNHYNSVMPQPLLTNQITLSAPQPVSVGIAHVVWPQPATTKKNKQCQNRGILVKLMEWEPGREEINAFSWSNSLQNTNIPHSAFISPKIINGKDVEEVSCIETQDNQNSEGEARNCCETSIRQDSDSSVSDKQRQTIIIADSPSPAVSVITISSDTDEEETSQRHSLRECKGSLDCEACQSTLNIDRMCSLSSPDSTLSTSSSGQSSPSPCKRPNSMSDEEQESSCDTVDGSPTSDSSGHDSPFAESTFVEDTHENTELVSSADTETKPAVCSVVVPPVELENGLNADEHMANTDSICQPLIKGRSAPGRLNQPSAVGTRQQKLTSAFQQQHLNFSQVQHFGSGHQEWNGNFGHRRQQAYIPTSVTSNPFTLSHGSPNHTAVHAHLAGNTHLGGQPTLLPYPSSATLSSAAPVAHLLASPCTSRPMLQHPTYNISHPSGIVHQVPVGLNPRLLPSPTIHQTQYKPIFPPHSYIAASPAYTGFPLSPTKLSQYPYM

CNC(=O)c1ccc2c(c1)C(=O)c1ccc(Nc3ccc(F)c(NC(=O)C4CC4)c3)cc1CC2 [Compound 2015]
remaining activity at 0.2 µM (340 wild-type kinases [1]; 0.2 µM 2015, read-out: IKKalpha residual activity): 97.6%
remaining activity at 1 µM (340 wild-type kinases [1]; 1 µM 2015, read-out: IKKalpha residual activity): 92%
remaining activity at 0.2 µM (340 wild-type kinases [1]; IKKalpha, 0.2 µM, read-out: residual activity): 97.6%
remaining activity at 1 µM (340 wild-type kinases [1]; IKKalpha, 1 µM, read-out: residual activity): 92%
remaining activity at 0.2 µM (340 wild-type kinases [2]; 0.2 µM 2015, read-out: MEK2 residual activity): 103%
remaining activity at 1 µM (340 wild-type kinases [2]; 1 µM 2015, read-out: MEK2 residual activity): 69.7%
remaining activity at 0.2 µM (340 wild-type kinases [2]; MEK2, 0.2 µM, read-out: residual activity): 103%
remaining activity at 1 µM (340 wild-type kinases [2]; MEK2, 1 µM, read-out: residual activity): 69.7%
remaining activity at 0.2 µM (340 wild-type kinases [3]; 0.2 µM 2015, read-out: HIPK2 residual activity): 93.7%
remaining activity at 1 µM (340 wild-type kinases [3]; 1 µM 2015, read-out: HIPK2 residual activity): 97.9%
remaining activity at 0.2 µM (340 wild-type kinases [3]; HIPK2, 0.2 µM, read-out: residual activity): 93.7%
remaining activity at 1 µM (340 wild-type kinases [3]; HIPK2, 1 µM, read-out: residual activity): 97.9%
remaining activity at 0.2 µM (340 wild-type kinases [4]; 0.2 µM 2015, read-out: SGK1 residual activity): 95.9%
remaining activity at 1 µM (340 wild-type kinases [4]; 1 µM 2015, read-out: SGK1 residual activity): 91.4%
remaining activity at 0.2 µM (340 wild-type kinases [4]; SGK1, 0.2 µM, read-out: residual activity): 95.8%
remaining activity at 1 µM (340 wild-type kinases [4]; SGK1, 1 µM, read-out: residual activity): 91.4%
remaining activity at 0.2 µM (340 wild-type kinases [5]; 0.2 µM 2015, read-out: HIPK3 residual activity): 104%
remaining activity at 1 µM (340 wild-type kinases [5]; 1 µM 2015, read-out: HIPK3 residual activity): 104%
remaining activity at 0.2 µM (340 wild-type kinases [5]; HIPK3, 0.2 µM, read-out: residual activity): 104%
remaining activity at 1 µM (340 wild-type kinases [5]; HIPK3, 1 µM, read-out: residual activity): 104%
remaining activity at 0.2 µM (340 wild-type kinases [6]; 0.2 µM 2015, read-out: VRK2 residual activity): 115%
remaining activity at 1 µM (340 wild-type kinases [6]; 1 µM 2015, read-out: VRK2 residual activity): 118%
remaining activity at 0.2 µM (340 wild-type kinases [6]; VRK2, 0.2 µM, read-out: residual activity): 115%
remaining activity at 1 µM (340 wild-type kinases [6]; VRK2, 1 µM, read-out: residual activity): 118%
remaining activity at 0.2 µM (340 wild-type kinases [7]; 0.2 µM 2015, read-out: SRMS residual activity): 96.9%
remaining activity at 1 µM (340 wild-type kinases [7]; 1 µM 2015, read-out: SRMS residual activity): 98.5%
remaining activity at 0.2 µM (340 wild-type kinases [7]; SRMS, 0.2 µM, read-out: residual activity): 96.9%
remaining activity at 1 µM (340 wild-type kinases [7]; SRMS, 1 µM, read-out: residual activity): 98.5%
remaining activity at 0.2 µM (340 wild-type kinases [8]; 0.2 µM 2015, read-out: ERK2 residual activity): 99.1%
remaining activity at 1 µM (340 wild-type kinases [8]; 1 µM 2015, read-out: ERK2 residual activity): 90.5%
remaining activity at 0.2 µM (340 wild-type kinases [8]; ERK2, 0.2 µM, read-out: residual activity): 99.1%
remaining activity at 1 µM (340 wild-type kinases [8]; ERK2, 1 µM, read-out: residual activity): 90.5%
remaining activity at 0.2 µM (340 wild-type kinases [9]; 0.2 µM 2015, read-out: CK1gamma1 residual activity): 115%
remaining activity at 1 µM (340 wild-type kinases [9]; 1 µM 2015, read-out: CK1gamma1 residual activity): 107%
remaining activity at 0.2 µM (340 wild-type kinases [9]; CK1gamma1, 0.2 µM, read-out: residual activity): 115%
remaining activity at 1 µM (340 wild-type kinases [9]; CK1gamma1, 1 µM, read-out: residual activity): 107%
